Measurements: patent publication US20240299542A1, “NATURAL KILLER CELLS ENGINEERED TO REDUCE OR ELIMINATE CBL-B AND USES THEREOF” (City of Hope, priority 2021, published 2024)

Tests used:
Cbl-b [1] = assay: Cbl-b protein by immunoblot after inhibitor pretreatment and K562 co-culture of primary NK cells; type: cell-based, human; conditions: 10 uM, 90 min pretreatment, 24 h co-culture with K562 (E/T=10:1), vs vehicle control
Method: FIG. 7A Primary NK cells were pretreated with AZD1480 (10 uM), CP-690550 (10 uM) or Afuresertib (10 uM) for 90 min prior to a 24 h cocultured with K562 cells (E/T=10:1). The immunoblot data are representative of 3 donors in a similar fashion. Densitometric quantification assessing the ratio of Cbl-b protein levels to β-actin protein levels for 3 donors is summarized in FIG. 7B. *P<0.05, **P<0.01; ns, not significant. Data are presented as mean±SEM.
(§1) Immunoblotting. Cells were harvested and suspended in RIPA lysis buffer (Thermo Fisher Scientific) on ice for 20 minutes. Equal amount of protein was resolved by 5-15% Criterion TGX gel (Bio-Rad) and then transferred onto a Nitrocellulose (NC) or PVDF membrane (Thermo Fisher Scientific). The membrane was incubated with a primary antibody at 4° C. overnight and an IRDye secondary antibody (Li-COR Biosciences) for 1 hour at room temperature. The immunoblots were visualized with Odyssey CLx Imager (Li-COR Biosciences). Densitometric analysis was performed to quantify intensity of gel bands with Image J (National Institutes of Health).
(§2) Since IL-15 utilizes select JAK-STAT proteins to initiate cellular activation, we pretreated primary NK cells with the JAK3 inhibitor CP-690550 (22) or the JAK1/2 inhibitor AZD1480 (23) in increasing concentrations prior to IL-15 stimulation then Cbl-b expression level was evaluated. […] As K562 cells were also able to induce expression of Cbl-b in primary human NK cells (FIG. 1B), we repeated the inhibitor experiments under the K562 cell stimulation.

Cbl-b [2] = assay: Cbl-b protein by immunoblot after JAK or AKT inhibitor pretreatment and IL-15/IL-2 activation of primary NK cells; type: cell-based, human
Method: FIGS. 2A-2E depict the results of a study showing that JAK-STAT and AKT pathways mediate upregulation of Cbl-b in NK cells. (FIG. 2A) Primary human NK cells were pretreated with the JAK3 inhibitor CP-690550 and the JAK1/2 inhibitor AZD1480 at various concentrations for 90 min prior to a 24 h activation by IL15 (10 ng/ml). NK cells were then harvested for quantification of Cbl-b protein expression by immunoblot analysis. Data are representative of 6 donors performed in a similar fashion. Densitometric quantification assessing the ratio of the Cbl-b protein to β-actin protein levels for 6 donors is summarized in (FIG. 2B) and (FIG. 2C). […] Data are representative of 5 donors performed in a similar fashion. Densitometric quantification assessing the ratio of the Cbl-b protein levels to β-actin protein levels for 5 donors is summarized in (FIG. 2E). *P<0.05, **P<0.01, ***P<0.001 by One-way ANOVA or Student's two-tailed paired t-test. Data are presented as mean±SEM.
as §1, §2

Cbl-b [3] = assay: Cbl-b protein by immunoblot after stimulation of primary human NK cells with cytokines or activating antibody; type: cell-based; conditions: primary human NK cells, 24 h cytokine stimulation, compared to resting NK cells without cytokines
Method: (FIG. 1B) Enriched primary human NK cells were co-cultured with the K562 myeloid leukemia cell line (E/T ratio=10:1) for 24 h followed by immunoblot analysis. Summary data are from three independent experiments. (FIG. 1C) Primary human NK cells were treated with different concentrations of IL-15 for 24 h followed by immunoblot analysis (n=5 donors). (FIG. 1D) Equal numbers of purified CD56^+ human NK cells, CD56^bright NK cells and CD56^dim NK cells were sorted from peripheral blood mononuclear cells isolated by Ficoll, cultured and stimulated with IL-15 (20 ng/ml for 24 h) followed by immunoblot analysis. The data are representative of three independent experiments. Med, medium only; *P<0.05, **P<0.01 by two-tailed unpaired t-test or One-way ANOVA; ns, not significant. Data are presented as mean±SEM.
FIG. 6A Enriched primary human NK cells were cocultured with Molm-13 or MV4-11 leukemia cell lines (E/T ratio=10:1) for 24 h prior to assessment of Cbl-b by immunoblot analysis. […] FIG. 6B Enriched primary human NK cells were cultured overnight with an anti-NKG2D activating antibody (clone 1D11) (10 μg/ml) or mouse IgG (10 μg/ml) as control prior to assessment of Cbl-b by immunoblot analysis. […] Data are shown summarizes four independent experiments. […] Data are shown summarizes five independent experiments. FIG. 6E The expression of Cbl-b was assessed by qRT-PCR after primary human NK cells were incubated with K562 cells (E/T ratio=10:1) for 24 h. Data are shown summarizes five independent experiments. *P<0.05, **P<0.01, compared to the shortest time point. Data are presented as mean±SEM.
as §1
We assessed the expression of Cbl-b protein in primary human NK cells enriched from the blood of healthy donors in response to 24-hour stimulation by different cytokines. […] Since certain tumor cells can trigger NK cell activation, we co-cultured NK cells for 24 h with different tumor cell lines in order to assess this effect on the expression of Cbl-b.

IFN-γ [4] = assay: Intracellular IFN-γ flow cytometry of siRNA-transduced NK cells; type: cell-based, human; conditions: IL-15 (10 ng/ml) 24 h, n=5 donors
Method: (§3) FIGS. 4A-4D depict the results of a study showing that downregulation of Cbl-b increases IFN-γ secretion in IL-15-activated primary human NK cells. (FIG. 4A) RNAseq was conducted using primary human NK cells transduced with either Cbl-b siRNA or Scr siRNA without or with incubation in IL-15 (10 ng/ml) for 16 h (4 donors for each group). […] (FIG. 4B) qRT-PCR was performed to quantify the mRNA levels of IFN-γ (n=6 donors) after IL-15 (10 ng/ml) 6 h stimulation. (FIG. 4C) The percentage of intracellular IFN-γ+ cells in un-transduced NK cells or those transduced with Cbl-b siRNA or Scr siRNA, each activated with IL-15 (10 ng/ml) for 24 h (11.5% vs 4.338%; P=0.0008; n=5 donors). (FIG. 4D) Supernatants were collected after IL-15 (10 ng/ml) for 24 h and IFN-γ concentrations measured by ELISA (18115 pg/ml vs 882.5 pg/ml; P=0.0099; n=7 donors). Scr-scrambled; *P<0.05, **P<0.01, ***P<0.001 by Student's two-tailed paired t-test or One-way ANOVA; ns, not significant. Data presented as mean±SEM.
FIGS. 9B-9D show intracellular flow cytometric analysis of CD56+ primary human NK cells transduced with Scr siRNA or transduced with Cbl-b siRNA, incubated with IL-18 (10 ng/ml), IL-12 (10 ng/ml) or IL-18 (10 ng/ml) plus IL-12 (10 ng/ml) for 24 h. Scr, scrambled; *P<0.05, ns, not significant. Data are presented as mean±SEM.
Flow cytometry. To determine protein cell surface expression via flow cytometry, cells were stained with monoclonal antibodies at room temperature for 20 minutes and washed with FACS buffer prior to analysis using a Fortessa X-20 flow cytometer (BD Biosciences). For IFN-γ intracellular flow cytometric analysis, […] GolgiPlug (BD Biosciences) was added for 4 h before cell harvest; cells were then permeabilized and fixed using a Cytofix/Cytoperm Fixation/Permeabilization Solution Kit (BD Biosciences), followed by analysis with a Fortessa X-20 flow cytometer. Intracellular flow cytometric analysis of Mertk was performed similarly except that GolgiPlug was not added. Data was analyzed by using Flowjo V10 software (Tree Star, Ashland, OR, USA).
(§4) To further explore how Cbl-b regulates the functions of primary human NK cells, we performed RNA-seq analyses using enriched primary NK cells from healthy donors transduced with Cbl-b siRNA or Scr siRNA without or with IL-15 treatment for 16 h (n=4 in each group). […] The intracellular results were supported by assessment IFN-γ secretion into the supernatant, in that IL-15-activated primary human NK cells transduced with Cbl-b siRNA expressed 10-fold higher levels of IFN-γ compared to NK cells transduced with Scr siRNA (FIG. 4D).

IFN-γ [5] = assay: IFN-γ in supernatants by ELISA; type: cell-based, human; conditions: IL-15 (10 ng/ml) 24 h, n=7 donors
Method: as §3
(§5) ELISA. Primary NK cells were plated in an equivalent number of 100,000 cells/well in a 96-well plate in RPMI and supplemented with 10% FBS. Cells were treated with recombinant human IL-15 (10 ng/ml) for 24 h, and cell-free culture supernatant was collected and frozen at −80° C. for later use. IFN-γ concentration was measured by ELISA using anti-IFN-γ antibody from Thermo Fisher Scientific. Granzyme B concentration was measured by ELISA kit purchased from R&D.
as §4

granzyme B = assay: Granzyme B protein in supernatants by ELISA; type: cell-based, human
Method: FIGS. 3A-3E depict the results of a study showing that downregulation of Cbl-b enhances the cytotoxicity of primary human NK cells. (FIGS. 3A and 3B) Primary human NK cells transduced with Cbl-b siRNA or Scr siRNA for 24 h were stimulated without (FIG. 3A) or with (FIG. 3B) a low concentration of IL-15 (2 ng/ml) for 16 h, then co-cultured with ^51Cr labeled Molm-13, MV4-11 or EOL-1 leukemia cell lines for 4 h, followed by quantification of specific tumor cell lysis. Each experiment was repeated with 6 different normal donors. (FIG. 3C) qRT-PCR was performed to quantify the granzyme B (GZMB) mRNA levels (n=8 donors) in siRNA- and Scr siRNA-transduced primary human NK cells incubated without or with IL-15 (10 ng/ml) for 16 h. (FIG. 3D) The concentration of the granzyme B protein in the supernatants of Cbl-b siRNA- and Scr siRNA-transduced primary human NK cells incubated without (688.1 pg/ml vs 525.4 pg/ml; P=0.0232) or with IL-15 (10 ng/ml) for 24 h (8789 pg/ml vs 3397 pg/ml; P=0.0232) was measured by ELISA (n=8 donors). (FIG. 3E) The level of granzyme B protein in Cbl-b siRNA- and Scr siRNA-transduced primary human NK cells incubated without or with IL-15 (10 ng/ml) for 24 h was measured by immunoblot analysis. The data are representative of three experiments. Scr-scrambled; *P<0.05, **P<0.01, ***P<0.001, ****P<0.0001 by One-way or Two-way ANOVA; ns, not significant. Data presented as mean±SEM.
as §5
Both groups were next incubated without or with IL-15 and co-cultured with ^51Cr labeled MV4-11, Molm-13, or EOL-1 leukemia cell lines, followed by assessment of specific lysis measured after 4 h of co-culture.

Cc1cc(Nc2nc(N[C@@H](C)c3ncc(F)cn3)ncc2Cl)n[nH]1 [AZD1480]
Cbl-b expression after inhibitor pretreatment under K562 stimulation (Cbl-b [1]): only the AKT1/2/3 inhibitor Afuresertib rather than either of the two JAK inhibitors | expression of Cbl-b protein after inhibitor pretreatment (Cbl-b [2]; 90 min pretreatment at various concentrations, then IL-15 (10 ng/ml) 24 h, vs vehicle control): significant decrease

Cn1ncc(Cl)c1-c1cc(C(=O)N[C@H](CN)Cc2cccc(F)c2)sc1Cl [Afuresertib]
Cbl-b expression after inhibitor pretreatment under K562 stimulation (Cbl-b [1]): significant downregulation | expression of Cbl-b protein after inhibitor pretreatment (Cbl-b [2]; 10 uM, 90 min pretreatment, then IL-15 (10 ng/ml) or IL-2 (150 IU/ml) 24 h): nearly identical results

IL-18: Recombinant human IL-18 purchased from Miltenyi Biotec
expression of Cbl-b protein (ratio to β-actin) (Cbl-b [3]): no significant change

IL-21: Recombinant human IL-21 purchased from Miltenyi Biotec
expression of Cbl-b protein (ratio to β-actin) (Cbl-b [3]): no significant change

Scr siRNA: scrambled Accell siRNA control, SEQ ID NO:2, UGGUUUACAUGUUGUGUGA (Accell modifications, chemistry not fully specified) [reference compound]
percentage of intracellular IFN-γ+ cells (IFN-γ [4]): 4.338% | IFN-γ concentration in supernatants (IFN-γ [5]): 882.5 pg/mL | concentration of granzyme B protein in supernatants (granzyme B; with IL-15 (10 ng/ml) 24 h, n=8 donors): 3397 pg/mL | concentration of granzyme B protein in supernatants (granzyme B; without IL-15, n=8 donors): 525.4 pg/mL

B1: IL-7: Recombinant human IL-7 purchased from Miltenyi Biotec (protein, UniProt P13232 26-177, looked up)
Interleukin-7: DCDIEGKDGKQYESVLMVSIDQLLDSMKEIGSNCLNNEFNFFKRHICDANKEGMFLFRAARKLRQFLKMNSTGDFDLHLLKVSEGTTILLNCTGQVKGRKPAALGEAQPTKSLEENKSLKEQKKLNDLCFLKRLLQEIKTCWNKILMGTKEH
expression of Cbl-b protein (ratio to β-actin) (Cbl-b [3]): no significant change

B2: IL-12: Recombinant human IL-12 purchased from Miltenyi Biotec (protein, UniProt P29459 23-219; P29460 23-328, looked up)
Interleukin-12 subunit alpha: RNLPVATPDPGMFPCLHHSQNLLRAVSNMLQKARQTLEFYPCTSEEIDHEDITKDKTSTVEACLPLELTKNESCLNSRETSFITNGSCLASRKTSFMMALCLSSIYEDLKMYQVEFKTMNAKLLMDPKRQIFLDQNMLAVIDELMQALNFNSETVPQKSSLEEPDFYKTKIKLCILLHAFRIRAVTIDRVMSYLNAS
Interleukin-12 subunit beta: IWELKKDVYVVELDWYPDAPGEMVVLTCDTPEEDGITWTLDQSSEVLGSGKTLTIQVKEFGDAGQYTCHKGGEVLSHSLLLLHKKEDGIWSTDILKDQKEPKNKTFLRCEAKNYSGRFTCWWLTTISTDLTFSVKSSRGSSDPQGVTCGAATLSAERVRGDNKEYEYSVECQEDSACPAAEESLPIEVMVDAVHKLKYENYTSSFFIRDIIKPDPPKNLQLKPLKNSRQVEVSWEYPDTWSTPHSYFSLTFCVQVQGKSKREKKDRVFTDKTSATVICRKNASISVRAQDRYYSSSWSEWASVPCS
expression of Cbl-b protein (ratio to β-actin) (Cbl-b [3]): no significant change
